For eight compounds, TGI and GI50 results are on record in PubChem BioAssay (NCI).

Test systems include SK-OV-3 ovarian; SNB-19 CNS; MCF7 breast; T-47D breast; OVCAR-3 ovarian; SF-268 CNS; HCC-2998 colon; MDA-MB-435; M14 melanoma; SR leukemia.
Holding throughout (assay): DTP human tumour cell line panel, 48 h

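How tested: cells in 96-well plates exposed to compound for 48 hours at five concentrations. GI50 is the concentration that inhibits growth by half. TGI denotes the concentration required for complete inhibition of growth.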

The TGI is the concentration giving total growth inhibition. Read a low TGI as more potent growth arrest. By GI50 is commonly meant the concentration at which growth is held to half of that of the control.

In the case of `CC1CCCCCC(=O)c2c(O)cc(O)cc2CC(=O)O1` (stereo not drawn), the TGI in the test with SK-OV-3 ovarian, in the test on SNB-19 CNS, in the test on MCF7 breast, in the test on T-47D breast, with OVCAR-3 ovarian and in the test on SF-268 CNS was over 100 µM throughout. Further, the TGI with HCC-2998 colon, with MDA-MB-435, in the test with M14 melanoma and in the test with SR leukemia was over 100 µM throughout.

`COC(=O)c1c2c(c(C)[n+]([O-])c1C)C(=O)C(NCc1ccc(OC)cc1)=CC2=O`: the GI50 with SK-OV-3 ovarian was 4.11 µM; in the test on SNB-19 CNS, 2.11 µM; in the test with MCF7 breast, 1.41 µM; in the test with T-47D breast, 2.12 µM; with OVCAR-3 ovarian, 0.315 µM; in the test with SF-268 CNS it was 2.64 µM. Moreover, the GI50 was 2.27 µM with HCC-2998 colon, 1.73 µM in the test with MDA-MB-435, 1.81 µM in the test with M14 melanoma and 2.47 µM with SR leukemia. The TGI in the test on SK-OV-3 ovarian came out at 15.8 µM; in the test with SNB-19 CNS, 5.03 µM; in the test on MCF7 breast, 3.35 µM; in the test with T-47D breast it was 5.47 µM; in the test on OVCAR-3 ovarian it was 1.2 µM; in the test on SF-268 CNS it was 10.3 µM. For the same compound, the TGI was 5.94 µM with HCC-2998 colon, 3.15 µM in the test on MDA-MB-435, 3.71 µM in the test with M14 melanoma and over 100 µM with SR leukemia.

Consider `C=CC1(C)CCC2C(=CCC3C2(C)CC(O)C(O)C3(C)COC2OC(CO)C(O)C(O)C2O)C1` (stereo not drawn), for which the TGI in the test with SK-OV-3 ovarian, in the test on SNB-19 CNS, with MCF7 breast, in the test with T-47D breast, in the test on SF-268 CNS and in the test on HCC-2998 colon was over 100 µM in each case. The TGI in the test on MDA-MB-435, in the test with M14 melanoma and with SR leukemia was over 100 µM in each case.

Consider `Cn1cc(-c2ccc3nc(-c4ccc(CC(=O)Nc5cc(C(C)(C)C)no5)cc4)cnc3c2)cn1`, for which the GI50 is 0.0938 µM in the test with SK-OV-3 ovarian; over 1.48 µM with SNB-19 CNS; 0.0827 µM with T-47D breast; 0.0592 µM with OVCAR-3 ovarian; 0.0399 µM in the test with SF-268 CNS; over 1.69 µM in the test with HCC-2998 colon. Moreover, the figures for the GI50 in the test with MDA-MB-435, in the test on M14 melanoma and in the test on SR leukemia were 0.0505 µM, 0.0172 µM and under 0.0445 µM, respectively. Besides, the TGI is 0.712 µM in the test on SK-OV-3 ovarian; over 3 µM in the test with SNB-19 CNS; over 3 µM in the test on MCF7 breast; over 3 µM in the test on T-47D breast; over 3 µM in the test with OVCAR-3 ovarian; over 3 µM with SF-268 CNS. Besides, the TGI in the test on HCC-2998 colon, in the test with MDA-MB-435, in the test on M14 melanoma and in the test on SR leukemia was over 3 µM in each case.

As to `C=CCC1(O)c2ccccc2C(=O)c2c(OCC(=O)OCC)ccc(OCC(=O)OCC)c21` (stereo not drawn), the GI50 is over 100 µM in the test on SNB-19 CNS; over 100 µM in the test with MCF7 breast; over 100 µM with T-47D breast; over 100 µM in the test with OVCAR-3 ovarian; over 100 µM in the test on SF-268 CNS; 44.9 µM in the test with HCC-2998 colon. Moreover, the GI50 with MDA-MB-435 was over 100 µM; in the test with M14 melanoma it was over 100 µM; with SR leukemia it was 82.6 µM. Moreover, the TGI in the test on SNB-19 CNS, in the test on MCF7 breast, with T-47D breast, in the test on OVCAR-3 ovarian, with SF-268 CNS and in the test with HCC-2998 colon was over 100 µM in each case. For the same compound, the TGI in the test with MDA-MB-435, in the test on M14 melanoma and in the test with SR leukemia was over 100 µM in each case.

For `Cc1c(Cl)cccc1C(=O)Nc1nc2c(s1)CN(C(=O)Nc1cccc(C(F)(F)F)c1)CC2`, the GI50 in the test on SK-OV-3 ovarian was 0.215 µM; with SNB-19 CNS, 0.307 µM; in the test with MCF7 breast, 0.145 µM; with T-47D breast it was 0.239 µM; with OVCAR-3 ovarian, 0.14 µM; with SF-268 CNS, 0.467 µM. Also, the GI50 with HCC-2998 colon is 0.647 µM; in the test on M14 melanoma, 0.167 µM; in the test with SR leukemia it was 0.0789 µM. Further, the TGI with SK-OV-3 ovarian was over 50 µM; in the test with SNB-19 CNS, over 50 µM; in the test on MCF7 breast it was over 50 µM; with T-47D breast, over 50 µM; in the test on OVCAR-3 ovarian, 0.539 µM; in the test on SF-268 CNS, over 50 µM. Also, the results for the TGI with HCC-2998 colon, in the test on M14 melanoma and in the test on SR leukemia were 8.52 µM, over 50 µM and over 50 µM, respectively.

On to `C=CCc1cccc(C=O)c1O`, for which the GI50 was over 100 µM with SK-OV-3 ovarian; 14.6 µM with SNB-19 CNS; 7.9 µM in the test on MCF7 breast; 10.2 µM in the test with T-47D breast; 25.2 µM in the test with SF-268 CNS; over 100 µM in the test on HCC-2998 colon. Moreover, the figures for the GI50 in the test with MDA-MB-435, in the test on M14 melanoma and in the test with SR leukemia were over 100 µM, 39.2 µM and 22 µM, respectively. For the same compound, the TGI with SK-OV-3 ovarian, in the test on SNB-19 CNS, with MCF7 breast, in the test on T-47D breast, in the test on SF-268 CNS and in the test on HCC-2998 colon was over 100 µM in each case. Besides, the TGI with MDA-MB-435, in the test on M14 melanoma and in the test on SR leukemia was over 100 µM each time.

`NS(=O)(=O)c1ccc(N(/C=C/C(=O)C(F)(F)F)CC(=O)c2ccc(F)cc2)cc1`: the GI50 is 63.3 µM in the test on SK-OV-3 ovarian; 53.8 µM in the test on SNB-19 CNS; over 100 µM with MCF7 breast; 43 µM with T-47D breast; 19.7 µM in the test with OVCAR-3 ovarian; 34.8 µM with SF-268 CNS. Moreover, the GI50 in the test with HCC-2998 colon is 17.7 µM; in the test on MDA-MB-435, 26.5 µM. Further, the TGI was over 100 µM with SK-OV-3 ovarian; over 100 µM with SNB-19 CNS; over 100 µM in the test with MCF7 breast; over 100 µM in the test on T-47D breast; 47.3 µM in the test with OVCAR-3 ovarian; over 100 µM in the test on SF-268 CNS. The results for the TGI in the test with HCC-2998 colon and in the test on MDA-MB-435 were 33.8 µM and 79.6 µM, respectively.
